Experimental data as given in ChEMBL document CHEMBL1151527, “Anti-pneumocystis activity of bis-amidoximes and bis-o-alkylamidoximes prodrugs” (1996).

Tests used:
Type in all cases: functional
Rattus norvegicus [1] = assay: In vivo toxicity against Pneumocystis carinii in immunosuppressed rats at a dose of 33 umol/kg/day administered orally.
Rattus norvegicus [2] = assay: Percent salinte-treated controls were evaluated against Pneumocystis carinii in immunosuppressed rats at a dose of 33 umol/kg/day administered orally.
Rattus norvegicus [3] = assay: Percent salinte-treated controls were evaluated against Pneumocystis carinii in immunosuppressed rats at a dose of 22 umol/kg/day administered by tail vein injection.
Rattus norvegicus [4] = assay: In vivo toxicity against Pneumocystis carinii in immunosuppressed rats at a dose of 22 umol/kg/day administered by tail vein injection.
Rattus norvegicus [5] = assay: In vivo toxicity against Pneumocystis carinii in immunosuppressed rats at a dose of 0.3 umol/kg/day administered by tail vein injection.
Rattus norvegicus [6] = assay: In vivo toxicity against Pneumocystis carinii in immunosuppressed rats at a dose of 5.5 umol/kg/day administered by tail vein injection.
Rattus norvegicus [7] = assay: Percent salinte-treated controls were evaluated against Pneumocystis carinii in immunosuppressed rats at a dose of 5.5 umol/kg/day administered orally.
Rattus norvegicus [8] = assay: Percent salinte-treated controls were evaluated against Pneumocystis carinii in immunosuppressed rats at a dose of 11 umol/kg/day administered by tail vein injection.
Rattus norvegicus [9] = assay: In vivo toxicity against Pneumocystis carinii in immunosuppressed rats at a dose of 11 umol/kg/day administered orally.
Rattus norvegicus [10] = assay: In vivo toxicity against Pneumocystis carinii in immunosuppressed rats at a dose of 5.5 umol/kg/day administered orally.
Rattus norvegicus [11] = assay: In vivo toxicity against Pneumocystis carinii in immunosuppressed rats at a dose of 2.7 umol/kg/day administered by tail vein injection.
Rattus norvegicus [12] = assay: Percent salinte-treated controls were evaluated against Pneumocystis carinii in immunosuppressed rats at a dose of 11 umol/kg/day administered orally.
Rattus norvegicus [13] = assay: In vivo toxicity against Pneumocystis carinii in immunosuppressed rats at a dose of 11 umol/kg/day administered by tail vein injection.
Rattus norvegicus [14] = assay: Percent salinte-treated controls were evaluated against Pneumocystis carinii in immunosuppressed rats at a dose of 0.3 umol/kg/day administered by tail vein injection.
Rattus norvegicus [15] = assay: Percent salinte-treated controls were evaluated against Pneumocystis carinii in immunosuppressed rats at a dose of 5.5 umol/kg/day administered by tail vein injection.
Rattus norvegicus [16] = assay: Percent salinte-treated controls were evaluated against Pneumocystis carinii in immunosuppressed rats at a dose of 2.7 umol/kg/day administered by tail vein injection.
Rattus norvegicus [17] = assay: In vivo toxicity against Pneumocystis carinii in immunosuppressed rats at a dose of 26.6 umol/kg/day administered by tail vein injection.
Rattus norvegicus [18] = assay: In vivo toxicity against Pneumocystis carinii in immunosuppressed rats at a dose of 66.3 umol/kg/day administered orally.
Rattus norvegicus [19] = assay: In vivo toxicity against Pneumocystis carinii in immunosuppressed rats at a dose of 0.03 umol/kg/day administered by tail vein injection.
Rattus norvegicus [20] = assay: In vivo toxicity against Pneumocystis carinii in immunosuppressed rats at a dose of 39.8 umol/kg/day administered orally.
Rattus norvegicus [21] = assay: Percent salinte-treated controls were evaluated against Pneumocystis carinii in immunosuppressed rats at a dose of 39.8 umol/kg/day administered orally.
Rattus norvegicus [22] = assay: Percent salinte-treated controls were evaluated against Pneumocystis carinii in immunosuppressed rats at a dose of 13.3 umol/kg/day administered by tail vein injection; Not available
Rattus norvegicus [23] = assay: In vivo toxicity against Pneumocystis carinii in immunosuppressed rats at a dose of 13.3 umol/kg/day administered by tail vein injection.
Rattus norvegicus [24] = assay: Percent salinte-treated controls were evaluated against Pneumocystis carinii in immunosuppressed rats at a dose of 0.03 umol/kg/day administered by tail vein injection.
Rattus norvegicus [25] = assay: Percent salinte-treated controls were evaluated against Pneumocystis carinii in immunosuppressed rats at a dose of 66.3 umol/kg/day administered orally.
Rattus norvegicus [26] = assay: In vivo toxicity against Pneumocystis carinii in immunosuppressed rats at a dose of 22 umol/kg/day administered orally.
Rattus norvegicus [27] = assay: Percent salinte-treated controls were evaluated against Pneumocystis carinii in immunosuppressed rats at a dose of 22 umol/kg/day administered orally.

| SMILES | Toxicity (Rattus norvegicus [1]) | Saline control (Rattus norvegicus [2]) | Saline control (Rattus norvegicus [3]) | Toxicity (Rattus norvegicus [4]) | Toxicity (Rattus norvegicus [5]) | Saline control (Rattus norvegicus [7]) | Toxicity (Rattus norvegicus [9]) | Toxicity (Rattus norvegicus [10]) | Toxicity (Rattus norvegicus [11]) | Saline control (Rattus norvegicus [12]) | Saline control (Rattus norvegicus [14]) | Saline control (Rattus norvegicus [16]) | further results |
| --- | --- | --- | --- | --- | --- | --- | --- | --- | --- | --- | --- | --- | --- |
| CCONC(=N)c1ccc(-c2ccc(-c3ccc(C(=N)NOCC)cc3)o2)cc1 | 0 | 121.5% | 104.7% | 1 |  |  |  |  |  |  |  |  |  |
| N=C(NO)c1ccc(-c2ccc(-c3ccc(/C(N)=N\O)cc3)o2)cc1 | 0 | 3.1% | 0.67% | 1 | 0 | 127% | 0 | 0 | 0 | 197.6% | 203.6% | 54.4% | Toxicity (Rattus norvegicus [6]): 1; Saline control (Rattus norvegicus [8]): 1.37%; Toxicity (Rattus norvegicus [13]): 1; Saline control (Rattus norvegicus [15]): 42.3% |
| N=C(N)c1ccc(-c2ccc(-c3ccc(C(=N)N)cc3)o2)cc1 [FURAMIDINE] |  |  |  |  | 0 |  |  |  | 0 |  | 6.92% | 7.26% | Toxicity (Rattus norvegicus [17]): 1; Toxicity (Rattus norvegicus [18]): 0; Toxicity (Rattus norvegicus [19]): 0; Toxicity (Rattus norvegicus [20]): 0; Saline control (Rattus norvegicus [21]): 42.3%; Saline control (Rattus norvegicus [22]): 0.79%; Toxicity (Rattus norvegicus [23]): 0; Saline control (Rattus norvegicus [24]): 26.3%; Saline control (Rattus norvegicus [25]): 25.2% |
| CONC(=N)c1ccc(-c2ccc(-c3ccc(C(=N)NOC)cc3)o2)cc1 [PAFURAMIDINE] | 0 | 1.82% | 14.3% | 0 |  | 264.2% | 0 | 0 |  | 34.7% |  |  | Toxicity (Rattus norvegicus [26]): 0; Saline control (Rattus norvegicus [27]): 12% |
